Reference: patent publication US20090111801A1, “SUBSTITUTED PYRAZINONE DERIVATIVES FOR USE AS A MEDICINE” (Janssen Pharmaceutica N.V., priority 2006, published 2009)

Tests used:
[1] = target: T1, hα2C receptor (Homo sapiens, UniProt P18825); assay: Radioligand binding experiment for α2C-adrenoceptor ([3H]raulwolscine, CHO cell membranes); settings: [3H]raulwolscine binding; for IC50: read-out: h-α2C pIC50 (converted)
T1 construct: expressed in transfected cells; host or cells: CHO cells, stably transfected; membrane preparation
T1 sequence (P18825 1-462): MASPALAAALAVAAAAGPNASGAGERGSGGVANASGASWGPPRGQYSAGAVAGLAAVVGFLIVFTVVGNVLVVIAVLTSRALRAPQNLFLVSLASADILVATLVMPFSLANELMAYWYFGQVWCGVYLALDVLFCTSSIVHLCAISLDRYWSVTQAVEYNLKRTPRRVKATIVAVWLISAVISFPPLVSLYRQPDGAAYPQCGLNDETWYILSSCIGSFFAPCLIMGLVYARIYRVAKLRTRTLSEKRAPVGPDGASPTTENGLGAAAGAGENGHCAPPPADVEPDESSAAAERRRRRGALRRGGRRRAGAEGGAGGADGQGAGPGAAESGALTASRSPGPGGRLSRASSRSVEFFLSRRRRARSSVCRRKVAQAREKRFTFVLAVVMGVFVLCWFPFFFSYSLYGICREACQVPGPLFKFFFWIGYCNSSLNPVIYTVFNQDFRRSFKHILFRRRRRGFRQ

[2] = target: T2, 5HT-Transporter (Homo sapiens, UniProt P31645); assay: Binding experiment for the 5HT-transporter ([3H]paroxetine, human platelet membranes); settings: [3H]paroxetine 0.5 nM; for IC50: read-out: h-5HTT pIC50 (converted)
T2 construct: Human platelet membranes (Oceanix Biosciences Corporation, Hanover, Md., USA) were thawed; tissue Oceanix Biosciences Corporation, Hanover, Md., USA; host or cells: human platelet membranes
T2 sequence (P31645 whole entry): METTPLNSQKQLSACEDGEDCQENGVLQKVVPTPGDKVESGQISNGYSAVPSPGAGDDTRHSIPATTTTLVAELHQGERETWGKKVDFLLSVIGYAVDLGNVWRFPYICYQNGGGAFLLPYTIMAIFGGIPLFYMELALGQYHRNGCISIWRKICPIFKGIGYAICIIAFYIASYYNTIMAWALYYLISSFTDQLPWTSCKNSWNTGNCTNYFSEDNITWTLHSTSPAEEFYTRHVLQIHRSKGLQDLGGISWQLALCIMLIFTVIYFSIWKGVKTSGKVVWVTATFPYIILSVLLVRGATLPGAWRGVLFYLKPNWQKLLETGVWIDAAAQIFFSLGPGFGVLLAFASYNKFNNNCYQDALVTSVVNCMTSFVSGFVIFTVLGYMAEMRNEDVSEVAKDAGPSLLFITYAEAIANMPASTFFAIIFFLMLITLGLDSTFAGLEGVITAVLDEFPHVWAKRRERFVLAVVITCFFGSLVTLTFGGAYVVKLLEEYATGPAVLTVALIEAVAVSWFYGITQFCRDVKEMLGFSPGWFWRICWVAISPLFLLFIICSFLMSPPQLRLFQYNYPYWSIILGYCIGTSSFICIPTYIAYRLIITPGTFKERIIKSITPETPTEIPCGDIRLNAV
In short: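 Filter-bound radioactivity from human platelet membranes incubated with [3H]paroxetine and test compound (buffer Tris-HCl 50 mM, 120 mM NaCl, 5 mM KCl) was counted.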

[3] = target: T3, hα2A receptor (Homo sapiens, UniProt P08913); assay: Radioligand binding experiment for α2A-adrenoceptor ([3H]raulwolscine, CHO cell membranes); settings: [3H]raulwolscine binding; for IC50: read-out: h-α2A pIC50 (converted)
T3 construct: expressed in transfected cells; host or cells: CHO cells, stably transfected; membrane preparation
T3 sequence (P08913 1-465): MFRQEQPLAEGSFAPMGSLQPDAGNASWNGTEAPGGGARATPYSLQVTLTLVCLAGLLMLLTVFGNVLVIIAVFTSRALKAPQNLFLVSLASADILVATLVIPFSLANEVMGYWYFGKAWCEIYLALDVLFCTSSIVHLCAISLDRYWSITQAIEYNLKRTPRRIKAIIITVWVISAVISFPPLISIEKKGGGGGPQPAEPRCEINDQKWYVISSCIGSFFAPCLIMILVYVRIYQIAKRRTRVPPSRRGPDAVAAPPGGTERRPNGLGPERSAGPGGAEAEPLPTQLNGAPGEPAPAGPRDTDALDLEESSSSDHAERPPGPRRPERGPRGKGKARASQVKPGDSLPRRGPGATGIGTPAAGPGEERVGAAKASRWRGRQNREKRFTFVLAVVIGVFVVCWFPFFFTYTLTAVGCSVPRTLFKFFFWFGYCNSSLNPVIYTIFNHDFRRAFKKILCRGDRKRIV

| IC50 [1] [µM] | IC50 [2] [µM] | IC50 [3] [µM] | h-α2C pIC50 [1] | h-5HTT pIC50 [2] | h-α2A pIC50 [3] | SMILES |
| --- | --- | --- | --- | --- | --- | --- |
| 0.000794 | 1 | 0.0126 |  |  |  | C/C(=C\c1ccccc1)CN1CCC(Nc2nccn(CC(=O)N(CCCN3CCCC3)Cc3ccc(F)cc3)c2=O)CC1 [1-137] |
| 0.01 | 0.794 | 0.0158 |  |  |  | C/C(=C\c1ccccc1)CN1CCC(Nc2nccn(CC(=O)c3ccccc3)c2=O)CC1 [5-29] |
| 0.00398 | 2 | 0.0631 |  |  |  | C/C(=C\c1ccccc1)CN1CCC(Nc2nccn(CC(=O)N3CCC(C(F)(F)F)CC3)c2=O)CC1 [2-12] |
| 0.0316 | 0.126 | 0.02 |  |  |  | C/C(=C\c1ccccc1)CN1CCC(Nc2nccn(-c3cccc(NC(=O)c4cccc(F)c4)c3)c2=O)CC1 [1-76] |
| 0.001 | 0.126 | 0.0316 |  |  |  | C/C(=C\c1ccccc1)CN1CCC(Nc2nccn(CCCN3C(=O)c4ccccc4C3=O)c2=O)CC1 [2-50] |
| 0.0251 | 0.398 | 0.158 |  |  |  | C/C(=C\c1ccccc1)CN1CCC(Nc2nccn(Cc3ccccc3C(F)(F)F)c2=O)CC1 [5-21] |
| 0.0794 | > 10 | 0.631 |  |  |  | C/C(=C\c1ccccc1)CN1CCC(Nc2nccn(-c3ccc(C(=O)O)cc3)c2=O)CC1 [3-4] |
| 0.0631 | 0.501 | 0.158 |  |  |  | C/C(=C\c1ccccc1)CN1CCC(Nc2nccn(C/C=C/c3ccccc3)c2=O)CC1 [5-28] |
| 0.0158 | 0.251 | 0.126 |  |  |  | C/C(=C\c1ccccc1)CN1CCC(Nc2nccn(-c3ccc(NC(=O)c4cccc(F)c4)cc3)c2=O)CC1 [1-77] |
|  |  |  | 8.1 | 6.0 | 7.0 | CC(=O)NCc1ccc(-n2ccnc(NC3CCN(C/C(C)=C/c4ccccc4)CC3)c2=O)cc1 [1-29] |
| 0.0126 | 0.631 | 0.0251 |  |  |  | CCCn1ccnc(NC2CCN(C/C(C)=C/c3ccccc3)CC2)c1=O [7-4] |
| 0.01 | 0.501 | 0.0398 |  |  |  | C/C(=C\c1ccccc1)CN1CCC(Nc2nccn(-c3ccc(N4CCCCC4)cc3)c2=O)CC1 [2-8] |
| 0.00501 | 0.631 | 0.1 |  |  |  | C/C(=C\c1ccccc1)CN1CCC(Nc2nccn(-c3ccc(C(=O)N4CCN(c5ncccn5)CC4)cc3)c2=O)CC1 [2-34] |
|  |  |  | 8.4 | 5.5 | 7.6 | C/C(=C\c1ccccc1)CN1CCC(Nc2nccn(-c3cccc(CNCCN4CCOCC4)c3)c2=O)CC1 [1-149] |
| 0.00158 | 2 | 0.0251 |  |  |  | C/C(=C\c1ccccc1)CN1CCC(Nc2nccn(CC(=O)N3CCC(N4CCCC4)CC3)c2=O)CC1 [2-17] |
|  |  |  | 7.4 | <5 | 6.6 | C/C(=C\c1ccccc1)CN1CCC(Nc2nccn(CC(=O)O)c2=O)CC1 [3-1] |
| 0.00158 | 1 | 0.00501 |  |  |  | CCN(CC)c1cccc(-n2ccnc(NC3CCN(C/C(C)=C/c4ccccc4)CC3)c2=O)c1 [1-17] |
| 0.126 | 0.316 | 0.316 |  |  |  | C/C(=C\c1ccccc1)CN1CCC(Nc2nccn(Cc3ccc(-c4ccccc4)cc3)c2=O)CC1 [5-32] |
| 0.0251 | 0.501 | 0.1 |  |  |  | C/C(=C\c1ccccc1)CN1CCC(Nc2nccn(Cc3ccc(CNS(=O)(=O)c4ccc(C#N)cc4)cc3)c2=O)CC1 [1-161] |
| 0.01 | 1 | 0.0501 |  |  |  | C/C(=C\c1ccccc1)CN1CCC(Nc2nccn(-c3ccc(C#N)cc3)c2=O)CC1 [5-3] |
| 0.316 | 2.51 | 0.794 |  |  |  | CSCCn1ccnc(NC2CCN(C/C=C/c3ccccc3)CC2)c1=O [16-12] |
| 0.0501 | 1.58 | 0.2 |  |  |  | C/C(=C\c1ccccc1)CN1CCC(Nc2nccn(Cc3ccccc3)c2=O)CC1 [5-8] |
| 0.0501 | 1 | 0.158 |  |  |  | C/C(=C\c1ccccc1)CN1CCC(Nc2nccn(Cc3ccc(C)cc3)c2=O)CC1 [5-9] |

| IC50 [1] [µM] | IC50 [2] [µM] | IC50 [3] [µM] | h-α2C pIC50 [1] | h-5HTT pIC50 [2] | h-α2A pIC50 [3] | SMILES |
| --- | --- | --- | --- | --- | --- | --- |
| 0.0158 | 0.794 | 0.1 |  |  |  | C/C(=C\c1ccccc1)CN1CCC(Nc2nccn(-c3ccc(N4CCN(c5ccccc5)CC4)cc3)c2=O)CC1 [2-28] |
| 0.00631 | 1.58 | 0.126 |  |  |  | CCOC(=O)CN(Cc1ccccc1)C(=O)Cn1ccnc(NC2CCN(C/C(C)=C/c3ccccc3)CC2)c1=O [1-101] |
| 0.0251 | 0.398 | 0.1 |  |  |  | C/C(=C\c1ccccc1)CN1CCC(Nc2nccn(Cc3cccc4ccccc34)c2=O)CC1 [5-34] |
| 0.0251 | 0.126 | 0.2 |  |  |  | C/C(=C\c1ccccc1)CN1CCC(Nc2nccn(-c3ccc(NC(=O)Nc4ccc(F)cc4)cc3)c2=O)CC1 [1-120] |
| 0.0251 | 0.398 | 0.0794 |  |  |  | C/C(=C\c1ccccc1)CN1CCC(Nc2nccn(Cc3cccc(Br)c3)c2=O)CC1 [5-15] |
| 0.251 | 2 | 0.398 |  |  |  | C/C(=C\c1ccccc1)CN1CCN(c2nccn(CC(=O)c3ccc(-c4ccccc4)cc3)c2=O)CC1 [12-6] |
| 0.126 | 1.26 | 0.398 |  |  |  | C/C(=C\c1ccccc1)CN1CCN(c2nccn(C/C=C/c3ccccc3)c2=O)CC1 [12-3] |
| 0.02 | 1.26 | 0.2 |  |  |  | C/C(=C\c1ccccc1)CN1CCC(Nc2nccn(CCCNS(C)(=O)=O)c2=O)CC1 [1-155] |
| 0.00398 | 2.51 | 0.158 |  |  |  | COC(=O)CCNC(=O)Cn1ccnc(NC2CCN(C/C(C)=C/c3ccccc3)CC2)c1=O [1-94] |
| 0.02 | 1 | 0.0158 |  |  |  | C/C(=C\c1ccccc1)CN1CCC(Nc2nccn(CC(=O)c3ccc4c(c3)NC(=O)CO4)c2=O)CC1 [6-15] |
| 0.0316 | 3.98 | 0.2 |  |  |  | C/C(=C\c1ccccc1)CN1CCC(Nc2nccn(CCn3cccc3)c2=O)CC1 [2-47] |
| 0.0158 | 0.251 | 0.158 |  |  |  | C/C(=C\c1ccccc1)CN1CCC(Nc2nccn(-c3ccc(C(=O)NCc4ccc(F)cc4)cc3)c2=O)CC1 [1-56] |
| 0.00501 | 0.398 | 0.0631 |  |  |  | C/C(=C\c1ccccc1)CN1CCC(Nc2nccn(-c3ccc(C(=O)N4CCC(N(C)C)C4)cc3)c2=O)CC1 (stereo not drawn) [2-2] |
| 0.0251 | 3.98 | 0.158 |  |  |  | C/C(=C\c1ccccc1)CN1CCC(Nc2nccn(Cc3cnc(C)s3)c2=O)CC1 [6-8] |
| 0.0316 | 0.794 | 0.0794 |  |  |  | COc1cccc(Cn2ccnc(NC3CCN(C/C(C)=C/c4ccccc4)CC3)c2=O)c1 [3-10] |
| 0.0158 | 3.98 | 0.1 |  |  |  | C/C(=C\c1ccccc1)CN1CCC(Nc2nccn(CC(=O)OCc3ccccc3)c2=O)CC1 [3-20] |
| 0.00501 | 3.16 | 0.0316 |  |  |  | C/C(=C\c1ccccc1)CN1CCC(Nc2nccn(-c3cccc(N)c3)c2=O)CC1 [1-4] |
|  |  |  | 8.3 | 6.3 | 6.7 | CCN(CC)C(=O)NCc1ccc(-n2ccnc(NC3CCN(C/C(C)=C/c4ccccc4)CC3)c2=O)cc1 [1-117] |
| 0.00398 | 0.794 | 0.1 |  |  |  | COc1cc(CNC(=O)Cn2ccnc(NC3CCN(C/C(C)=C/c4ccccc4)CC3)c2=O)cc(OC)c1 [1-65] |
| 0.00398 | 3.98 | 0.126 |  |  |  | COC(=O)C1CCN(C(=O)Cn2ccnc(NC3CCN(C/C(C)=C/c4ccccc4)CC3)c2=O)CC1 [2-15] |
| 0.0631 | 6.31 | 0.0501 |  |  |  | C/C(=C\c1ccccc1)CN1CCN(c2nccn(Cc3ccco3)c2=O)CC1 [13-1] |
| 0.0316 | 0.1 | 0.158 |  |  |  | C/C(=C\c1ccccc1)CN1CCC(Nc2nccn(CC(=O)N3CCN(c4ccc(C)c(C)c4)CC3)c2=O)CC1 [2-29] |

| SMILES | IC50 [1] [µM] | IC50 [2] [µM] | IC50 [3] [µM] | h-α2C pIC50 [1] | h-5HTT pIC50 [2] | h-α2A pIC50 [3] |
| --- | --- | --- | --- | --- | --- | --- |
| C/C(=C\c1ccccc1)CN1CCC(N(C)c2nccn(CCN3CCCCC3)c2=O)CC1 [15-3] | 0.02 | 5.01 | 0.1 |  |  |  |
| C/C(=C\c1ccccc1)CN1CCC(N(C)c2nccn(Cc3ccc(CN)cc3)c2=O)CC1 [15-1] | 0.01 | 0.501 | 0.0251 |  |  |  |
